In one test the test system is HEK293. Description: Cytotoxicity against human HEK293 cells assessed as cell viability after 24 hrs by cell titer-blue assay. It counts as cell-based. Particulars: HEK293, 24 h. In general terms: The colour change of resazurin is a common sign of viable cells or microbes.
Test [1] concerns Mycobacterium tuberculosis. As to the kind of experiment: Antimycobacterial activity against Mycobacterium tuberculosis H37Ra ATCC 25177 assessed as growth inhibition after 24 to 168 hrs by microplate resazurin assay. It counts as functional, organism-based.

The text below walks through data of ChEMBL document CHEMBL3745636, “Dibenz[b,f]oxepin and Antimycobacterial Chalcone Constituents of Empetrum nigrum” (J Nat Prod, 2015).

In brackets after ≈: the same amount, converted by molar mass.

Usually IC50 stands for the concentration needed to halve the response being measured. What is called MIC90 is an inhibitory concentration at the 90% level, which refers to growth in some studies and to a panel of isolates in others. Take `COc1c(O)cc2c(c1OC)-c1c(O)cccc1CC2`: in the test on HEK293, the IC50 amounted to 289 µM. Also, in test [1], the IC50 amounted to 113 µM and the MIC90 was found to be 734 µM (≈ 200 µg/mL).
On the same counts, the results for `COc1cc(CCc2ccccc2O)cc(OC)c1OC` are 113 µM, 179 µM and 694 µM (≈ 200 µg/mL).
On the same counts, the results for `COc1cc2c(c(O)c1OC)Oc1ccccc1CC2` are 355 µM, 105 µM and 367 µM (≈ 99.9 µg/mL).
On the same counts, the results for `O=C(CCc1ccccc1)c1ccc(O)cc1O` are 249 µM, 32.8 µM and 206 µM (≈ 49.9 µg/mL).
For the compound `COc1c(O)cc2c(c1OC)Oc1ccccc1CC2`, the IC50 with HEK293 worked out at 167 µM. In test [1], the half-maximal inhibitory concentration (IC50) is 94.4 µM and the MIC90 was 367 µM (≈ 99.9 µg/mL).
On the same counts, the results for `COc1cc(CCc2ccccc2O)cc(O)c1OC` are 298 µM, 900 µM and > 1460 µM.
For `CC1(C)CC[C@]2(CO)CC[C@]3(C)C(=CC[C@@H]4[C@@]5(C)CC[C@H](O)C(C)(C)[C@@H]5CC[C@]43C)[C@@H]2C1` [ERYTHRODIOL], in that order: 613 µM, 157 µM and > 903 µM.
For `O=C(/C=C/c1ccccc1)c1ccc(O)cc1O` [2',4'-DIHYDROXYCHALCONE], in that order: 109 µM, 23.8 µM and 104 µM (≈ 25 µg/mL).
Regarding `CC1(C)CC[C@]2(C(=O)O)CC[C@]3(C)C(=CC[C@@H]4[C@@]5(C)CC[C@H](O)C(C)(C)[C@@H]5CC[C@]43C)[C@@H]2C1` [OLEANOLIC_ACID], the 50% inhibitory concentration (IC50) with HEK293 stood at 329 µM. In test [1], the IC50 stood at 214 µM and the MIC90 is > 876 µM.
